Data published in patent publication US20220213030A1, “AMINOGUANIDINE HYDRAZONES AS RETROMER STABILIZERS USEFUL FOR TREATING NEUROLOGICAL DISEASES” (OSPEDALE SAN RAFFAELE SRL, priority 2019, published 2022).

Legend:
[1] = test system: Neuro2a cells transfected with G93A plasmids; test: Cell survival (CCK8) of Neuro2a transfected with G93A plasmids; format: cell-based, mouse; conditions: 10 μM
From the text: Pathological alteration of the Golgi apparatus, such as its fragmentation, has been described in many neurodegenerative disorders including ALS. Neuro2a cells transfected with plasmids encoding the G93A mutant form of the SOD1 show alteration of the Golgi transport (Soo, Halloran et al. 2015). Along the same lines, Golgi fragmentation precedes neuromuscular denervation and axon retraction in ALS mice (van Dis, Kuijpers et al. 2014). We transfected Neuro2a cells with plasmids encoding the G93A mutant form of the human SOD1 gene (hereafter G93A) in presence or in absence of compound 2a (10 μM). Cells were harvested after 48 hours, labelled for Golgin-97 and scored for the distribution of trans-Golgi. […] Of note, the fragmentation of Golgi in cells receiving G93A plasmids was not depending on Golgin97 expression levels (FIG. 3A). We speculated that Golgi fragmentation may exacerbate cell death in this cell line. Therefore, we assayed cell survival of Neuro2a transfected with G93A plasmids. Accordingly, cells were transfected with G93A plasmids or with a control plasmid encoding the LacZ. […] Rates of cell survival were similar among controls—i.e. cells receiving LacZ plasmids or compound 2a—when compared with untreated cells. On the other hand, the over-expression of G93A plasmids affected Neuro2a cell survival. […]

[2] = test system: Neuro2a cells transfected with G93A plasmids; test: LDH-Glo cytotoxicity assay in G93A-transfected Neuro2a; format: cell-based, mouse; conditions: 10 μM
Procedure: We next assayed cytotoxicity by measuring lactate dehydrogenase (LDH) release with a LDH-Glo™ cytotoxicity assay. Cells were treated with plasmids encoding G93A and the Sh56-RNAi sequence with or without compound 2a, while supernatants were used to measure LDH contents. Overexpression of G93A increased the release of LDH by Neuro2a cells, when compared with cells transfected with LacZ-encoding plasmids or with LacZ+Sh56 plasmids (FIG. 3E). […] On the other hand, LDH release increased when cells received G93A plasmids along with Sh56 plasmids.
LDH cytotoxicity was run on 96 well plates using LDH-Glo™ Cytotoxicity Assay (Promega). Briefly, Neuro2a cells were transfected with plasmids encoding pCMV-LacZ; pcDNA3.1(+)SOD1G93A with or without VPS35 short interfering plasmids (Sh56) or compound 2a (10 μM). After 48 hours, 5 μl of supernatants were 100 fold diluted in LDH storage buffer (Tris-HCl 200 mM, 10% Glycerol, 1% BSA, Sigma-Aldrich) and used to determine LDH, according to manufacturer's recommendations. Maximum LDH Release Control was obtained lysing untreated Neuro2a cells with 2 μL of 10% Triton X-100 (Sigma-Aldrich). In each experiment we calculated % Cytotoxicity=(Exp.LDH Release-Medium Background)/(Max LDH Release Control-Medium Background), and we run parallel positive controls treating cells with 200 μM H2O2.

[3] = test system: CI-MPR; test: CI-MPR MFI in MNs of G93A mice; format: in vivo, mouse; conditions: 10 mg/kg, day 100
From the text: We next assayed retromer proteins labelling sections of mice sacrificed at day 100 for VPS35 and NeuN. […] Similarly, we observed that VPS26 levels were increased in G93A mice receiving compound 2a (FIG. 11B). We further corroborated our experimental finding observing that compound 2a increased retromer functionality. The cation-independent mannose 6-phosphate receptor (CI-MPR) is a cargo (Arighi et al., 2004) of the retromer complex that is unstable in VPS26 knockout cells (Seaman 2004). We observed a substantial reduction of CI-MPR MFI levels in MNs of vehicle-treated G93A mice when compared with WT litters (FIG. 11C). […] Sortilin encodes for a receptor belonging to the Vps10 family, and it has been involved in Frontotemporal Dementia (FTD), (Lane 2012).
Sections from mice (frozen cryo sections) or glass covers containing cells were washed three times in PBS 1× (Lonza, 5 min each), and incubated in the following blocking mix: PBS 1×/FBS 10% (Invitrogen), BSA 1 mg/mL (Sigma), TritonX100 0.1% (Sigma), for 1 h at room temperature. Antibodies were diluted in blocking mix and incubated at +4° C. overnight according manufacturer's instructions. […]

What does the source list for `N=C(N)NN=Cc1cccc(C=NNC(=N)N)c1` [Compound 2a, 1,3-Bis-amino guanidine phenyl hydrazone]?
cell survival of G93A-transfected cells [1]: significantly reverted this phenotype; cell survival of cells transfected with G93A and Sh56 (VPS35 RNAi) plasmids ([1]; VPS35 knock down): substantially affected the capability of compound 2a to revert this phenotype; LDH release ([2]; cells transfected with G93A plasmids and Sh56 plasmids): high release of LDH was observed; LDH release ([2]; cells transfected with G93A plasmids, 48 hours): significantly reduced LDH release; CI-MPR MFI levels [3]: significantly increased
